{"source": "patent US20250262167A1", "about": "“COMPOUNDS, TARGETS AND PATHWAYS FOR MACROPHAGE MODULATION” (Massachusetts Institute of Technology, priority 2020, published 2025)", "key": {"[1]": {"system": "human primary macrophages", "method": "Total protein lysates were isolated from either mouse ImKCs with or without DPI treatment for 6 and 12 hrs or human primary macrophages with or without DPI treatment for 12 hrs at the indicated concentrations. Equal amounts of total proteins from whole-cell lysates were subjected to Western blotting analysis. β-actin was used as a loading control. Shown are representative data of two independent experiments. […] P values were calculated by student t-test. * P<0.05, ** P<0.01. n.s. not significant.\nProteins were extracted from cells with RIPA buffer. Protein concentration was quantified by BCA Protein Assay Kit (Pierce Biotechnology). Samples containing 20 μg total protein were resolved on a 10% SDS-PAGE gel and electro-transferred onto a PVDF membrane (Millipore Corporation). The membrane was blocked in 5% (w/v) fat-free milk in PBST (PBS containing 0.1% Tween-20). […] The blot was washed twice in PBST and then incubated with anti-Rabbit HRP-conjugated secondary antibody (Cell Signaling Technology, 1:2000) in 5% fat-free milk. The membrane was washed twice in PBST and subjected to protein detection by ECL Plus Western Blotting Detection System (GE Healthcare) before being exposed to a Kodak BioMax XAR film."}, "[2]": {"system": "hMDMs differentiated into M2 by IL-4 plus IL-13", "test": "Reprogramming screen and dosage response on M2-like differentiated macrophages;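 as to all read-outs here: human monocyte-derived macrophages held 24 h in 5 ng/mL IL-4 plus IL-13 before 24 h compound exposure, with cell shape measured from images in 384-well plates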", "conditions": "Homo sapiens, Macrophage, 24 h, read-out: EC", "method": "Shown are comparison of Z-scores between 5 μM or 10 μM of compounds. […] Shown are comparison of Z-scores between 5 μM or 10 μM of compounds. […] EC and fitness of 21 M1-polarizing (triangle) and 19 M2-polarizing compounds (circle) were calculated by the Michaelis-Menten equation and plotted. Data were summarized from 3 independent experiments.\nHuman macrophages were seeded into optical 384-well plates. Sixteen hours later, medium in M1 plates were replaced by M1 differentiating medium (complete RPMI with 50 ng/mL IFNγ and 50 ng/mL TNFα) and medium in M2 plates by M2 differentiating medium (complete RPMI with 5 ng/mL IL-4 and 5 ng/mL IL-13). After 24 hrs cell differentiation, M1 plates (M1 macrophages) and M2 plates (M2 macrophages) were treated with M2-activating compounds and M1-activating compounds respectively for 24 hrs. Two independent experiments were performed with or without replacing differentiating medium right before treatment. Cell imaging and analysis were performed as indicated above.\nTo investigate whether the identified compounds could reprogram or reactivate macrophages after M1- or M2-like differentiation, we rescreened the hits on M1- or M2-activated macrophages. hMDMs were activated into M2-like macrophages by IL-4 plus IL-13 or M1-like macrophages by IFNγ plus TNFα. After removing the differentiating cytokines, M2-like macrophages were treated with each of the 166 M1-activating compounds and M1-like macrophages were treated with each of the 180 M2-activating compounds at a final concentration of either 5 μM and 10 μM. 24 hours later, cell images were taken and cell shapes were quantified. […] Dosage responses were carried out with 40 commercial available compounds (21 M1-activating and 19 M2-activating) on polarized macrophages.\nWe also rescreened the hits on differentiated macrophages in the presence of differentiating cytokines: either IL-4 plus IL-13 or IFNγ plus TNFα."}, "Kupffer cells (KCs)": {"system": "Kupffer cells (KCs)", "conditions": "HFD mice", "method": "Single cell suspension was prepared from mice from FIG. 24A after 8 weeks on HFD (6 mice per group), stained with anti-F4/80, anti-CD11b and anti-Gr-1. F4/80^+CD11b^+Gr1^low macrophages were purified by cell sorting followed by RNAseq. Shown are differentially expressed genes among the three groups. […] M1-type polarization is expressed as positive scores whereas M2-type polarization is expressed as negative scores.\nMouse livers were dissected and digested with Collagenase IV (Roche). Single cell suspension was stained with anti-F4/80, anti-CD11b and anti-Gr-1. F4/80^+CD11b^+Gr1^low macrophages were sorted by flow cytometry (BD Aria). RNAs were extracted with RNeasy MinElute Kit (Qiagen), converted into cDNA and sequenced using Next-Generation Sequencing (Illumina). RNA-seq data were aligned to the human genome (version hg19) and raw counts of each genes of each sample were calculated with bowtie2 2.2.3 (Langmead et al. 2009) and RSEM 1.2.15 (Li et al. 2011). Differential expression analysis was performed using the program edgeR at P<0.05 with a two-fold change (Robinson et al. 2010). The gene expression level across different samples was normalized and quantified using the function of cpm. DEGs were annotated using online functional enrichment analysis tool DAVID (Huang et al. 2007)."}, "ImKCs": {"system": "ImKCs", "conditions": "6 hours, dose-dependent", "method": "ImKCs were treated with DPI for 6 hrs and select metabolites in the glycolytic pathway and TCA cycle were quantified by LC-MS. Data are presented as the mean±sd (n=4). P values were calculated by student t-test. * P<0.05, ** P<0.01, *** P<0.001, **** P<0.0001.\nImKCs were treated with DPI (500 nM) for 24 hrs and the select metabolites were quantified by LC-MS. Shown are representative data of two independent experiments. P values were calculated by student t-test. * P<0.05, ** P<0.01. n.s. not significant.\nImKCs were treated with DPI (#81050, Cayman) at 50 or 500 nM for 6 hrs or 24 hrs. Cells were washed once in ice-cold 0.9% NaCl and lysates were extracted in 80% methanol solution containing internal standards for LC/MS by scraping on dry ice followed by 10-minute mixing with vortex in 4° C. Following lysate extraction, debris were removed by high-speed centrifugation and supernatant was dried using speedvac. Samples were analyzed by LC/MS on QExactive Orbitrap instruments (Thermo Scientific) in Whitehead Institute metabolite profiling core facility."}, "[3]": {"test": "not given", "remark": "listed apart in the source"}, "[4]": {"system": "BMDMs (wild-type and Pkm−/−)", "conditions": "dose-dependent", "method": "WT and Pkm^−/− BMDMs were not treated or treated with DPI (50 and 500 nM) for 24 hrs. The transcript levels of Pkm, Ldha, Hk2 and c-Myc were measured by real-time qPCR. Data were collected from two independent experiments with 3 biological replicates per group. Transcriptional level was normalized to β-actin first and then to DMSO control. Data are presented as the mean±sd. […] Transfected cells were not treated or treated with DPI (50 and 500 nM) for 6 hrs and luciferase activities were measured. Data are presented as the mean±sd (n=5). P values were calculated by student t-test. * P<0.05, ** P<0.01, *** P<0.001, **** P<0.0001.\nTo test this mechanism, we first determined if PKM2 is required for DPI-induced transcription of glycolytic genes. BMDMs were prepared from wild-type and Pkm^−/− mice, incubated with or without 50 and 500 nM DPI for 24 hours, and the transcript levels of key glycolytic genes were quantified by RT-PCR.\nWe also determined if c-Myc is induced by DPI in a PKM2-dependent manner. […] To determine whether DPI activates c-Myc transcriptional activity, we performed c-Myc luciferase reporter assays in the parental ImKCs and Pkm^−/− ImKCs."}, "PKM2": {"system": "PKM2", "test": "PKM enzymatic activity (colorimetric kit) in treated ImKCs", "type": "cell-based, mouse", "conditions": "parental ImKCs, 50 nM, β-arrestin2-dependent", "experimental": "Data are presented as the mean±sd (n=4). […] Data are presented as the mean±sd (n=6).\nFIGS. 29A-29B show comparison of DPI's effect on glycolysis in wild-type and Pkm^−/− BMDMs. […] FIGS. 29C-29D show activation of PKM2 and GAPDH enzymatic activity by DPI is inhibited by ERK1/2 inhibitor. ImKCs were treated with DMSO or DPI alone (500 nM) or DPI plus ERK1/2 inhibitor (SCH772984, […]) for 6 hrs and the enzymatic activities of PKM2 (c) and GAPDH (d) were measured by colorimetric assay kits (Biovision). Data are presented as the mean±sd (n=6).\nThe enzymatic activities of PKM and GAPDH were measured using the pyruvate kinase activity assay kit (Biovision, #K709) and GAPDH activity assay kit (Biovision, #K680) according to the manufacturer's protocols, respectively."}, "[5]": {"conditions": "HFD 16 weeks", "method": "At week 15 plus 3 days, mice from FIG. 32A were starved overnight (12˜16 hrs) with only water. Glucose (1 mg/kg) was injected intraperitoneally and blood glucose levels were measured at the indicated time. AUC were calculated for statistics (right panel).\nLiver samples fixed in 10% buffered formalin were embedded in paraffin, sliced (2 μm sections), and stained with hematoxylin and eosin (H&E). Histological examination for morphological changes was performed in a blinded manner. Liver sections were scored according to the criteria of the NAFLD activity score (NAS).\nThe GTT were performed in mice 19 weeks after feeding with HFD or NC. For GTT, mice were fasted overnight, followed by an intraperitoneal injection of 1 g/kg glucose. […] Blood was obtained from the tail vein before (0 min) and after (15, 30, 60, 90 and 120 min) the injection of glucose or insulin. Glucose levels were measured using an automatic glucometer (Roche Diagnostics, Rotkreuz, Switzerland).\nB6 mice were fed with HFD for 16 weeks."}, "[6]": {"system": "human Kupffer cells from NAFLD patients", "conditions": "500 nM, ex vivo, 24 hours", "method": "CD14^+ KCs were sorted from single cell suspension of NAFLD human liver biopsies (n=2) and treated with DMSO or DPI (500 nM) for 24 hrs, followed by RNAseq to quantify gene expression.\nHuman liver biopsies were obtained from livers procured from deceased donors deemed unacceptable for liver transplantation. Samples were collected with appropriate institutional ethics approval from The First Affiliated Hospital of Jilin University. All experiments were performed in accordance with the relevant guidelines and regulations. In addition, written informed consent was obtained from each subject. During organ retrieval, donor liver grafts were perfused in situ with cold (HTK) solution (Methapharm) to thoroughly flush out circulating cells, leaving only tissue resident cells that are then used to prepare a single-cell suspension to isolate immune cells. The unused liver caudate lobe post liver transplantation was collected and flushed with HBS+EGTA at 4° C. to remove any non-liver resident cells. Single-cell isolation from the resected caudate lobe was performed with a modified two-step collagenase procedure (MacFarland et al. 2017 ACnano). Single cell suspension was stained with anti-CD45 to sort all immune cells for scRNAseq or anti-CD14 to sort KCs for in vitro treatment by flow cytometry (BD Aria).\nRNAs were extracted with RNeasy MinElute Kit (Qiagen), converted into cDNA and sequenced using Next-Generation Sequencing (Illumina). RNA-seq data were aligned to the human genome (version hg19) and raw counts of each genes of each sample were calculated with bowtie2 2.2.3 (Langmead et al. 2009) and RSEM 1.2.15 (Li et al. 2011). Differential expression analysis was performed using the program edgeR at P<0.05 with a two-fold change (Robinson et al. 2010). The gene expression level across different samples was normalized and quantified using the function of cpm. DEGs were annotated using online functional enrichment analysis tool DAVID (Huang et al. 2007). […]"}, "[7]": {"system": "subcutaneous B16F10 tumors", "test": "B16F10 melanoma model in B6 mice", "type": "in vivo, mouse", "conditions": "for tumor growth: alone; for tumor growth, with TA99: combination with TA99"}, "[8]": {"conditions": "flow cytometry, vs vehicle or TA99"}}, "note": "Like-named read-outs stand apart in the source and are kept apart here."}
{"smiles": "c1ccc2c(c1)[I+]c1ccccc1-2", "note": "[Diphenyleneiodonium chloride]", "values": [{"measurement": "transcription of genes in the glycolysis pathway", "setting": "[1]; 50 nM, 24 hours, RNAseq", "value": "stimulates transcription"}, {"measurement": "HK, GAPDH, LDHA and enolase at the protein level", "setting": "[1]; human primary macrophages, dose- and time-dependent", "value": "upregulation"}, {"measurement": "HFD-induced elevation of serum AST and ALT", "setting": "HFD 8 weeks", "value": "significantly reduced"}, {"measurement": "weight gain", "setting": "HFD 8 weeks, 2 mg/kg i.p. every five days, vs vehicle", "value": "significantly reduced"}, {"measurement": "glucose tolerance", "setting": "HFD 8 weeks, vs vehicle", "value": "significant increase"}, {"measurement": "lipid deposition in the liver", "setting": "HFD 8 weeks, vs vehicle", "value": "significantly reduced"}, {"measurement": "iWAT", "setting": "after 8 weeks on HFD", "value": "significantly lower levels"}, {"measurement": "EC (M1 Z-score cutoff)", "setting": "[2]", "value": 0.336, "unit": "µM"}, {"measurement": "expression of genes involved in glycolysis, oxidative phosphorylation and fatty acid metabolism in KCs", "setting": "Kupffer cells (KCs)", "value": "upregulated"}, {"measurement": "expression of genes involved in inflammation in KCs", "setting": "Kupffer cells (KCs)", "value": "significantly suppressed"}, {"measurement": "macrophage polarization index (MPI) of KCs", "setting": "Kupffer cells (KCs)", "value": "reprogrammed to an intermediated phenotype"}, {"measurement": "glucose level", "setting": "ImKCs", "value": "decreased significantly"}, {"measurement": "levels of TCA cycle intermediates", "setting": "ImKCs", "value": "all decreased"}, {"measurement": "levels of glycolysis intermediates (G6P, F1,6BP, G3P, pyruvate, lactate)", "setting": "ImKCs", "value": "increased significantly"}, {"measurement": "c-Myc luciferase activity", "setting": "c-Myc; Pkm−/− ImKCs", "value": "not"}, {"measurement": "c-Myc luciferase activity", "setting": "c-Myc; parental ImKCs, 50 and 500 nM, 6 hrs", "value": "induced"}, {"measurement": "blood glucose", "setting": "[3]; 15 and 30 min after glucose injection", "value": "significantly lower levels"}, {"measurement": "blood glucose", "setting": "[3]; 6 hours after DPI 2 mg/kg i.p.", "value": "significantly lower level"}, {"measurement": "transcription of c-Myc", "setting": "[4]", "value": "stimulated the transcription"}, {"measurement": "PKM2 enzymatic activity", "setting": "PKM2", "value": "immediate increase"}, {"measurement": "glucose tolerance", "setting": "[5]", "value": "increased"}, {"measurement": "lipid droplet, steatosis and collagen deposition in the liver", "setting": "[5]", "value": "reduced"}, {"measurement": "weight gain", "setting": "[5]; 2 mg/kg every 5 days from week 9", "value": "significantly reduced"}, {"measurement": "weight of iWAT", "setting": "[5]; vs vehicle", "value": "significantly lower"}, {"measurement": "expression of DAM markers APOE, CLEC10A, TREM2 and C1QA", "setting": "[6]", "value": "downregulated"}, {"measurement": "expression of genes associated with chemokine-mediated signaling, chemotaxis and inflammatory response", "setting": "[6]", "value": "suppressed"}, {"measurement": "expression of glycolytic genes", "setting": "[6]", "value": "upregulated"}]}
{"smiles": "C=C(NC(=O)C(=C)NC(=O)c1csc(C2=N[C@@H]3c4csc(n4)[C@H]4NC(=O)c5csc(n5)[C@H]([C@](C)(O)[C@@H](C)O)NC(=O)[C@H]5CSC(=N5)/C(=C/C)NC(=O)[C@H]([C@@H](C)O)NC(=O)c5csc(n5)[C@]3(CC2)NC(=O)[C@H](C)NC(=O)C(=C)NC(=O)[C@H](C)NC(=O)[C@H]([C@@H](C)CC)N[C@@H]2C=Cc3c([C@H](C)O)cc(nc3[C@H]2O)C(=O)O[C@@H]4C)n1)C(N)=O", "note": "[Thiostrepton]", "values": [{"measurement": "EC (M1 Z-score cutoff)", "setting": "[2]", "value": 0.408, "unit": "µM"}, {"measurement": "tumor growth", "setting": "[7]; I.P., 150 or 300 mg/kg, dosage-dependent", "value": "strongly suppressed"}, {"measurement": "tumor growth, with TA99", "setting": "[7]; I.P., 150 or 300 mg/kg", "value": "additively"}, {"measurement": "expression of Tnf, Il1b, Cxcl1 and Cxcl2 in TAMs", "setting": "[7]; RNA-seq, day 18, I.P. or S.C.", "value": "significantly upregulated"}, {"measurement": "macrophages and monocytes in tumors", "setting": "[7]; day 18, flow cytometry, vs vehicle or TA99", "value": "elevated levels"}, {"measurement": "Arg1 in TAM", "setting": "[7]; [8]", "value": "decreased levels"}, {"measurement": "iNOS and CD86 in TAM", "setting": "[7]; [8]", "value": "elevated levels"}, {"measurement": "tumor growth", "setting": "[7]; para-tumor S.C., 20 mg/kg", "value": "suppressed the tumor growth"}, {"measurement": "tumor growth, with TA99", "setting": "[7]; para-tumor S.C., 20 mg/kg", "value": "additive effects"}, {"measurement": "TNFα+ IFNγ+ NK cells in tumors", "setting": "[7]; vs vehicle or TA99", "value": "increased number"}]}
